Legend:
Format in all cases: cell-based
[1] = system: human vaginal epithelial cells; assay: Neutral red screening of human cytotoxicity; settings: 24 h incubation; positive control and validation component
Method: Potential cytotoxicity of the extracts was assayed in the neutral red-screening test using human vaginal epithelial cells at 80% confluence corresponding to 2*10^5 cells per well of 96 wells as follows:
The extracts freshly extracted and stored once frozen were incubated for 24 h with the epithelial cells at different concentrations. At the end of the experiment the cells were washed 3× and incubated with Neutral Red (NR) medium (50 μg/ml) for 3 hours at 37° C., 5.0% CO2/air. A water solution at 0.5% ethanol was used as negative control (present in all samples). […] Cells were then washed and NR quantified. 100% staining intensity indicate intact lysosomal activity. 0% indicates little to no survival of human cells. Results were analysed according to the Hill function. IC50 or concentrations with highest impairment of cell survival were determined.
Desorb solution was prepared in a ratio of water-ethanol-acetic acid glacial (49:50:1; v:v) during 20 min with shaking. Wavelength used for spectrophotometric reading of NR optical density was 540 nm. Test Criteria were that the differences between VC mean; R2>0.85; Point >0%<100%. The results are presented on FIG. 4.

[2] = system: Candida albicans adhesion on human vaginal epithelial cells (End1/E6E7); assay: Inhibitory activity on Candida adhesion on human vaginal epithelial cells
Method: A tissue culture plate of 24 wells was prepared with vaginal epithelial cells. 0.5 ml of a culture of 10^5 cells/ml in keratinocyte SFM were put in each well of a 24-well plate and incubated for 2 days at 37° C. and 5% CO2. Each well was filled (after taking away the vaginal cells growth media) with 1 ml C. albicans culture of 5·10^6 cfu/ml mixed with test substance. As control, the solvent of each test substance was also tested. The plate was incubated at 37° C. for 6 h or 2 h ([…] for Example 2, 2 h for Example 4), permitting Candida cells to adhere to vaginal cells. After incubation the Candida culture was pipetted away from each well, which were then washed 3 times with 0.5 ml PBS. The epithelial cells-Candida layer was treated with a 0.05% trypsin solution (concentration of 1 ml/25 cm^2), which was then neutralized by addition of DMEM with 10% FCS. […] The obtained cell solution was diluted and analyzed with pour plate method (Manuel Suisse des denrées alimentaires, Chapitre 56, 2000, revision partielle 2004): 1 ml of the appropriate dilution was pipetted into an empty Petri dish and about 15-20 ml of SDA, cooled down to 45-50° C., poured over it.
After 24 h incubation at 37° C. the colonies were counted and the result (in cfu/ml) multiplied 1.5 times to obtain the number of adhered cell in each well. […]

[3] = system: Candida albicans cells (ATCC MYA-2876); assay: Candida growth test (MIC, visual turbidity score)
Method: Candida albicans cells (ATCC MYA-2876) were incubated in SB (Sabouraud broth, Biolife 4020002) for 24 h at 30° C. and 150 rpm. The obtained culture was enumerated with a Neubauer Improved count chamber and concentration adjusted to 2.5·10^3 cfu/ml by dilution with sterile SB. Vaginal cells (End1/E6E7, ATCC CRL-2615) have been grown in Keratinocyte SFM (Gibco 17005-42) with 0.1 ng/ml human recombinant EGF (Gibco 10450-013), 0.05 mg/ml bovine pituitary extract (Gibco 13028-014) and additional calcium chloride 44.1 mg/L according to instructions by the provider, with media change every 2-3 days.
Minimal inhibitory concentration (MIC) of the plant extracts and antifungal substances was accomplished through tissue culture plates of 96 wells with flat bottom (Becton Dickinson). In each well 100 μl of the 2.5·10^3 cfu/ml Candida albicans culture obtained as described above in SB was mixed with 100 μl plant extract of different concentrations (0.025, 0.083, 0.25, 0.83, 2.5 and 8.3 mg/ml). Together with each dilution series a blank well was prepared with 100 μl culture and 100 μl of 5% ethanol-water solution. Fluconazole (Sigma, F8929) has been taken as positive control. Fluconazole solutions of different concentrations (4, 16, 32, 65, 650 μg/ml) have been freshly prepared prior testing. A well with only broth (100 μl) plus water (100 μl) and a well with broth plus plant extract (100 μl) were also prepared for color control. The plate was then incubated at 37° C. for 24 h and 48 h.
The evaluation of the growth inhibitory activities was conducted by visual observation of the turbidity of the wells and by attribution of a score from 0 (no growth) to 4 (maximal growth, similar to control well). MIC value of a substance is defined as the concentration which permits to reach a score of less than […]. […] In fact, the score of 2 represents an inhibition of Candida concentrations of about 80%. Results are presented on FIG. 2. […]

CCCCCCCCCCCCOS(=O)(=O)[O-].[Na+] [SDS]
IC50 neutral red cytotoxicity [1]: 8 to 25 µg/mL

OC(Cn1cncn1)(Cn1cncn1)c1ccc(F)cc1F [fluconazole]
Adhesion of Candida, average value (100% = control) ([2]; Example 1, fluconazole at 1 mg/ml, 6 hour incubation): 100% | Stability of the growth inhibition effect, 24 h versus 48 h ([3]; Example 1, 24 h and 48 h of treatment): maximal effect at 24 h and reduced effects at 48 h | Candida growth score (arbitrary unit, 0 no growth to 4 maximal growth) ([3]; after 48 h incubation, 2 separate runs): 2 to 3 arbitrary unit | Inhibition of Candida growth ([3]; all 5 concentrations applied (4, 16, 32, 65, 650 μg/ml)): inhibited Candida growth to a similar degree

Pepstatin A
% inhibition (adhesion of Candida albicans to human epithelial cells) ([2]; Table 3, at 1 μM): 5 (at 1 μM) %

— patent US10391134B2, “Anti-candida compositions and uses thereof” (PharmAlp SA, priority 2014, dated 2019)
